Patent publication US6342508B1, “N-hydroxy-2-(Alkyl,Aryl or Heteroaryl sulfanyl, sulfinyl or sulfonyl) 3-substituted alkyl, aryl or heteroarylamides as matrix metalloproteinase inhibitors” (American Cyanamid Company, priority 1997, dated 2002)

Columns and labels:
Type in all cases: biochemical
[1] = target: T1, MMP 1 (Homo sapiens, UniProt P03956); test: In Vitro Collagenase Assay (human recombinant fibroblast collagenase, fluorogenic peptide substrate)
T1 construct: human recombinant fibroblast collagenase (truncated mw=18,828, WAR, Radnor)
T1 sequence (P03956 100-269 limits assumed): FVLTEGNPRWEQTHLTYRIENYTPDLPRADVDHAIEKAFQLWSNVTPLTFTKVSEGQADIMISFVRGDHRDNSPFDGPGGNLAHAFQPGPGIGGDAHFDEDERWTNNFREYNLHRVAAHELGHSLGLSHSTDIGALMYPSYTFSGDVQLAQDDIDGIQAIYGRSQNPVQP
Procedure: The assay is based on the cleavage of a peptide substrate ((Dnp-Pro-Cha-Gly-Cys(Me)-His-Ala-Lys(NMa)-NH2), Peptide International Inc.) by collagenase releasing the fluorescent NMa group which is quantitated on the fluorometer. Dnp quenches the NMa fluorescence in the intact substrate. […] Substrate is dissolved in methanol and stored frozen in 1 mM aliquots. […] For the assay, substrate is dissolved in HCBC buffer to a final concentration of 10 μM and collagenase to a final concentration of 5 nM. Compounds are dissolved in methanol, DMSO, or HCBC. The methanol and DMSO are diluted in HCBC to <1.0%. Compounds are added to the 96 well plate containing enzyme and the reaction is started by the addition of substrate.
The slope of the line is calculated and represents the reaction rate.
The mean (x±sem) of the control rate is calculated and compared for statistical significance (p<0.05) with drug-related rates using Dunnett's multiple comparison test.

[2] = target: T2, TACE (Homo sapiens, UniProt P78536); test: Procedure for Measuring TACE Inhibition (fluorescent peptidyl substrate); settings: 1 micromolar
T2 construct: purchased Immunex

[3] = target: T3, MMP 9 (Homo sapiens, UniProt P14780); test: In Vitro Gelatinase Assay (human neutrophil gelatinase B, thiopeptide substrate/DTNB)
T3 construct: from tissue; host or cells: human neutrophils
Procedure: The assay is based on the cleavage of the thiopeptide substrate ((Ac-Pro-Leu-Gly(2 Mercapto-4 methyl-pentanoyl)-Leu-Gly-OEt), Bachem Bioscience) by the enzyme, gelatinase, releasing the substrate product which reacts colorimetrically with DTNB ((5,5′-dithio-bis(2-nitro-benzoic acid)). The enzyne activity is measured by the rate of the color increase. The thiopeptide substrate is made up fresh as a 20 mM stock in 100% DMSO and the DTNB is dissolved in 100% DMSO as a 100 mM stock and stored in dark at room temperature. Both the substrate and DTNB are diluted together to 1 mM with substrate buffer (50 mM HEPES pH 7.5, 5 mM CaCl2) before use.
The increase in OD405 is plotted and the slope of the line is calculated which represents the reaction rate.
The mean (x±sem) of the control rate is calculated and compared for statistical significance (p<0.05) with drug-treated rates using Dunnett's multiple comparison test.

[4] = target: MMP 13 (Homo sapiens, UniProt P45452); test: MMP 13 inhibition (standard/manual test)

T3 sequence (P14780 94-707): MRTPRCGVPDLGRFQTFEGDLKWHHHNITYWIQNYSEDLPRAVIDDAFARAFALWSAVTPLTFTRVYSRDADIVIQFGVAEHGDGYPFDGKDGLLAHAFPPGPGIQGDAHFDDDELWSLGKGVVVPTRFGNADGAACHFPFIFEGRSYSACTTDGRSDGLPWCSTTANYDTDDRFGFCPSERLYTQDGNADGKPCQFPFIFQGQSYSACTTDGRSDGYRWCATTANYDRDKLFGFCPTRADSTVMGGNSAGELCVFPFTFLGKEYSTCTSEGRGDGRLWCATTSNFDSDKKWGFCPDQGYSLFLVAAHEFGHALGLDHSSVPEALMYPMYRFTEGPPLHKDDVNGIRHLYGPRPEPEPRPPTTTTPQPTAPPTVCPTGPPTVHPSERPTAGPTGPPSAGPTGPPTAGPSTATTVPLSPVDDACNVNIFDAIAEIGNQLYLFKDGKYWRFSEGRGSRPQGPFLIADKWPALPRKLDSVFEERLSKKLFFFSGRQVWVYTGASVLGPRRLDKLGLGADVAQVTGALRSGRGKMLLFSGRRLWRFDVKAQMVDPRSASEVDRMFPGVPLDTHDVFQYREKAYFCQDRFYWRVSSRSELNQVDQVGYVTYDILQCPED
T2 sequence (P78536 215-824): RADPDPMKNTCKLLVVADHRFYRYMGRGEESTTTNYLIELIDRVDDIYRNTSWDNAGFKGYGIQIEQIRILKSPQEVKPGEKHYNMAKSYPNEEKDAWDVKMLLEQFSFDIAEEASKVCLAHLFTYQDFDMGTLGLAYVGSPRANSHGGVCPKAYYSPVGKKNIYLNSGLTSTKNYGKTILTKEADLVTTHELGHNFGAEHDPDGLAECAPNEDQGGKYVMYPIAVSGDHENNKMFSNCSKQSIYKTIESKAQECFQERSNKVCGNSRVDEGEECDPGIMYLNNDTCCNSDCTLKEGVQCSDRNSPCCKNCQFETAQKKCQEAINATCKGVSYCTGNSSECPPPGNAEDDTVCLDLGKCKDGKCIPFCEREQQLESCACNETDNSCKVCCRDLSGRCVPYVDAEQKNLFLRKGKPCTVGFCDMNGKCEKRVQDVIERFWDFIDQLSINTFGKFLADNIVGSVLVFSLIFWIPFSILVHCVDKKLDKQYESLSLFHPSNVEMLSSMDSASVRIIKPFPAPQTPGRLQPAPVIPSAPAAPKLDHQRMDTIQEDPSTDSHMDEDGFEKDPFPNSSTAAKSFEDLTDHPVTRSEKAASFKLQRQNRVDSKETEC

Compound | IC50 ([1]; read-out: MMP 1 IC 50) | TACE % inhibition at 1 micromolar [2] | IC50 ([3]; read-out: MMP 9 IC 50) | IC50 ([4]; read-out: MMP 13 IC 50) | MMP 1 % inhibition at 1 micromolar ([1]; 1 micromolar) | MMP 9 % inhibition at 1 micromolar ([3]; 1 micromolar) | MMP 13 % inhibition at 1 micromolar ([4]; 1 micromolar)
2-(4-Methoxy-benzenesulfonyl)-4methyl-2-pyridin-ylmethyl-pentanoic acid hydroxyamide [Example 66] | 1600 nM | 42.33% | 131 nM | 226 nM | – | – | –
CCCCCCCCS(=O)(=O)C(Cc1ccc(OCCN2CCCCC2)cc1)C(=O)NO (centres unmarked) [Example 46, 2-(octane-1-sulfonyl)-3-[4-(2-piperidin-yl-ethoxy)-phenyl]propionic acid hydroxamide] | – | 1.4% | – | – | 78.9% | 79.12% | 84.7%
